Among the test systems are DU-145 prostate; OVCAR-4 ovarian; UACC-257 melanoma; 786-0 renal; MOLT-4 leukemia; NCI-H522 lung; HT29 colon; MDA-MB-435; UO-31 renal; NCI-H23 lung.
Common to all, as to test: NCI anticancer screen, dose series, 48 h

SMILES strings stand for the structures. Where “and” joins values, the source holds several entries; their conditions need not be identical. Identical values can stand only once.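 Method: 48-hour compound exposure of cells in 96-well plates, five concentrations, linear interpolation of endpoints. GI50 is the concentration that inhibits growth by half. Definition used: TGI = concentration required for complete inhibition of growth.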

In PubChem BioAssay (NCI) one finds GI50 and TGI data, which are given here for 7 molecules.

For the molecule `Nc1nc(Cl)nc2c1ncn2[C@@H]1O[C@H](COS(N)(=O)=O)[C@@H](O)[C@H]1O`, the GI50 in the assay on DU-145 prostate was 4.13 nM; with OVCAR-4 ovarian, 3.03 nM; in the assay on UACC-257 melanoma, 23.3 nM and 24.2 nM; in the assay with 786-0 renal, 21.4 nM and 26.6 nM; with MOLT-4 leukemia, 10.9 nM; in the assay on NCI-H522 lung, 5.03 nM and 21.2 nM. In addition, the GI50 was 25.4 nM and 30 nM in the assay on HT29 colon; 17.1 nM and 17.6 nM in the assay on MDA-MB-435; 19.3 nM with UO-31 renal; 21 nM and 28.8 nM with NCI-H23 lung. In addition, the TGI is 34.9 nM and 30.1 nM in the assay on DU-145 prostate; 9.29 nM and 32.4 nM in the assay with OVCAR-4 ovarian; 69.4 nM and 68.5 nM with UACC-257 melanoma; 55.6 nM and 74.1 nM in the assay with 786-0 renal; 391 nM and 45.7 nM in the assay with MOLT-4 leukemia; 24.4 nM and 62.3 nM in the assay with NCI-H522 lung. For the same molecule, the TGI in the assay with HT29 colon is 67.8 nM and 94.9 nM; in the assay on MDA-MB-435, 32.7 nM and 34.1 nM; with UO-31 renal, 47.5 nM; in the assay with NCI-H23 lung, 53.8 nM and 98.2 nM.

Consider `O=C(NN1C(=O)CSC12CCC(c1ccccc1)CC2)c1[nH]c2ccc(F)cc2c1-c1ccccc1` (centres undefined), for which the GI50 in the assay with DU-145 prostate was 16500 nM; in the assay on OVCAR-4 ovarian it was 15800 nM; with UACC-257 melanoma it was 19300 nM; in the assay on 786-0 renal, 16400 nM; in the assay with MOLT-4 leukemia, 12200 nM; in the assay on NCI-H522 lung, 14300 nM. The GI50 in the assay on HT29 colon was 14800 nM; in the assay with MDA-MB-435, 18800 nM; in the assay on UO-31 renal, 17000 nM; in the assay on NCI-H23 lung, 17400 nM. Also, the TGI came to 33600 nM in the assay with DU-145 prostate; 32500 nM in the assay on OVCAR-4 ovarian; 35600 nM in the assay with UACC-257 melanoma; 33800 nM in the assay with 786-0 renal; 33700 nM with MOLT-4 leukemia; 28200 nM in the assay on NCI-H522 lung. The TGI with HT29 colon amounted to 30500 nM; in the assay with MDA-MB-435 it was 36700 nM; with UO-31 renal, 31000 nM; with NCI-H23 lung it was 32000 nM.

As for `CCc1nc(N)nc(N)c1C#CC(C)c1cc(-c2ccnc(C)c2)c2oc(C)nc2c1` (centres undefined), the GI50 is below 10 nM in the assay on DU-145 prostate; 4540 nM with OVCAR-4 ovarian; below 10 nM in the assay on 786-0 renal; below 10 nM with MOLT-4 leukemia; 22.2 nM with NCI-H522 lung; below 10 nM in the assay on HT29 colon. In addition, the GI50 in the assay with MDA-MB-435 was below 10 nM; in the assay with UO-31 renal, 18.1 nM; in the assay with NCI-H23 lung, below 10 nM. Also, the TGI in the assay with DU-145 prostate was found to be 7900 nM; in the assay on OVCAR-4 ovarian, 26400 nM; with UACC-257 melanoma, 13200 nM; in the assay on 786-0 renal it was 5540 nM; in the assay on MOLT-4 leukemia, 8810 nM; in the assay on NCI-H522 lung it was 9660 nM. The TGI worked out at 7740 nM in the assay on HT29 colon, 12300 nM in the assay on MDA-MB-435, 11500 nM in the assay with UO-31 renal and 5310 nM in the assay on NCI-H23 lung.

On to `O=C1OC(OC/C(Br)=C(/Br)COC2OC(=O)C(Cl)=C2Cl)C(Cl)=C1Cl` (centres undefined), for which the TGI in the assay with DU-145 prostate was found to be 30600 nM; with OVCAR-4 ovarian it was 20100 nM; in the assay on UACC-257 melanoma it was 25500 nM; in the assay with 786-0 renal, 14100 nM; in the assay on MOLT-4 leukemia, 5440 nM; in the assay with NCI-H522 lung it was 4530 nM. In addition, the TGI in the assay with HT29 colon was determined as 28400 nM; in the assay with MDA-MB-435, 24200 nM; in the assay on UO-31 renal it was 15600 nM; in the assay with NCI-H23 lung, 22500 nM.

For `c1ccc(/C(=N\Nc2ccc3ccccc3n2)c2ccccn2)cc1`, the GI50 was 881 nM in the assay on DU-145 prostate; 418 nM in the assay with OVCAR-4 ovarian; 330 nM with UACC-257 melanoma; 509 nM with 786-0 renal; 252 nM in the assay with MOLT-4 leukemia; 412 nM in the assay with NCI-H522 lung. In addition, the GI50 with HT29 colon is 608 nM; in the assay with MDA-MB-435, 660 nM; in the assay on UO-31 renal, 361 nM; with NCI-H23 lung it was 983 nM. The TGI in the assay on DU-145 prostate is 16800 nM; in the assay on OVCAR-4 ovarian it was above 100000 nM; in the assay on UACC-257 melanoma, 3480 nM; with 786-0 renal, 4350 nM; in the assay on MOLT-4 leukemia, 690 nM; in the assay with NCI-H522 lung it was 21700 nM. The TGI in the assay on HT29 colon turned out to be 26100 nM; in the assay with MDA-MB-435 it was 16700 nM; in the assay with UO-31 renal, 4890 nM; in the assay on NCI-H23 lung, 22800 nM.

As for `C=C1C(=O)O[C@H]2[C@H]1CC/C(CNC(=O)/C=C/c1ccc(Cl)cc1Cl)=C\CC[C@@]1(C)O[C@@H]21`, the GI50 is 594 nM in the assay on DU-145 prostate; 1310 nM in the assay with OVCAR-4 ovarian; 1210 nM in the assay with UACC-257 melanoma; 1200 nM in the assay on 786-0 renal; 275 nM in the assay with MOLT-4 leukemia; 1090 nM in the assay on NCI-H522 lung. Further, the GI50 in the assay on HT29 colon is 841 nM; in the assay on MDA-MB-435 it was 444 nM; in the assay with UO-31 renal, 1030 nM; with NCI-H23 lung it was 1400 nM. Moreover, the TGI came to 1890 nM with DU-145 prostate; 3010 nM in the assay on OVCAR-4 ovarian; 2580 nM in the assay on UACC-257 melanoma; 2560 nM in the assay on 786-0 renal; 1580 nM with MOLT-4 leukemia; 2510 nM in the assay with NCI-H522 lung. For the same molecule, the TGI was 2490 nM in the assay on HT29 colon, 1740 nM in the assay with MDA-MB-435, 2280 nM in the assay on UO-31 renal and 3200 nM in the assay on NCI-H23 lung.

Regarding `COc1ccc2c(c1OC)C(=O)O[C@@H]2[C@H]1c2c(c(Br)c3c(c2OC)OCO3)CCN1C`, the GI50 was above 100000 nM in the assay on DU-145 prostate; above 100000 nM in the assay on OVCAR-4 ovarian; 7760 nM in the assay on UACC-257 melanoma; 12000 nM with 786-0 renal; 4090 nM with MOLT-4 leukemia; 6780 nM in the assay with NCI-H522 lung. The GI50 is 47000 nM with HT29 colon, 3550 nM in the assay on MDA-MB-435, above 100000 nM in the assay on UO-31 renal and above 100000 nM with NCI-H23 lung. Further, the TGI with DU-145 prostate, in the assay with OVCAR-4 ovarian, with UACC-257 melanoma, in the assay with 786-0 renal, in the assay with MOLT-4 leukemia and in the assay on NCI-H522 lung was above 100000 nM throughout. In addition, the TGI in the assay with HT29 colon is above 100000 nM; with MDA-MB-435 it was 29600 nM; in the assay with UO-31 renal, above 100000 nM; with NCI-H23 lung, above 100000 nM.
